In patent publication US20140350285A1, “NOVEL POLYMORPHS OF N-[2-AMINO-4-(4-FLUOROBENZYLAMINO)-PHENYL] CARBAMIC ACID ETHYL ESTER AND PROCESSES THEREOF” (SYMED LABS LIMITED, priority 2012, published 2014):
In brackets after ≈: the same amount, converted by molar mass.

Assays:
[1] = Polymorphic stability on storage, analysed by XRPD; type: physicochemical; conditions: stored at 25° C.±2° C., about 70% RH (result sentence: about 76% RH), 6 weeks
[2] = Chemical and polymorphic stability under stability testing conditions; type: physicochemical; conditions: 25±2° C. and 75% RH, inert atmosphere
[3] = Comparative solubility profile of crystalline forms in diluents
[4] = diluent: Solvent Methylene chloride

SMILES	Polymorphic stability (XRPD) [1]	Chemical and polymorphic stability [2]	Solubility profile compared to known polymorphs (crystalline modifications A, B, and C) [3]	Solubility ([3]; diluent: Solvent Acetone) [mg/mL]	Solubility ([3]; diluent: Solvent Alcohol (96%)) [mg/mL]	Solubility ([3]; diluent: Solvent DMSO) [mg/mL]	Solubility [3, 4] [mg/mL]	Solubility ([3]; diluent: Water) [mg/mL]	Solubility ([3]; diluent: pH Buffer 1.2 pH) [mg/mL]	Solubility ([3]; diluent: pH Buffer 4.5 pH) [mg/mL]	Solubility ([3]; diluent: pH Buffer 8.5 pH) [mg/mL]	Solubility ([3]; DMSO, organic solvent or mixture, Solubility, diluent: Solvent DMSO) [mg/mL]	Solubility ([3]; acetone, organic solvent or mixture, Solubility, diluent: Solvent Acetone) [mg/mL]	Solubility ([3]; alcohol (96%), organic solvent or mixture, Solubility, diluent: Solvent Alcohol (96%)) [mg/mL]	Solubility ([3]; methylene chloride, organic solvent or mixture, Solubility, diluent: Solvent Methylene chloride) [mg/mL]	Solubility ([3]; pH buffer, pH 1.2, simulated gastric fluid, Solubility, diluent: pH Buffer 1.2 pH) [mg/mL]	Solubility ([3]; pH buffer, pH 4.5, aqueous buffer, Solubility, diluent: pH Buffer 4.5 pH) [mg/mL]	Solubility ([3]; pH buffer, pH 8.5, aqueous buffer, Solubility, diluent: pH Buffer 8.5 pH) [mg/mL]	Solubility ([3]; water, Solubility, diluent: Water) [mg/mL]
CCOC(=O)Nc1ccc(NCc2ccc(F)cc2)cc1N [Form-I, N-[2-amino-4-(4-fluorobenzylamino)-phenyl]carbamic acid ethyl ester]	polymorphically stable	substantially stable chemically and polymorphically	better solubility profile	290 (≈ 956 mM)	25 (≈ 82.4 mM)	700 (≈ 2310 mM)	40 (≈ 132 mM)	<0.1	10 (≈ 33 mM)	<0.1	<0.1								
CCOC(=O)Nc1ccc(NCc2ccc(F)cc2)cc1N [Form-II, N-[2-amino-4-(4-fluorobenzylamino)-phenyl]carbamic acid ethyl ester]	polymorphically stable	substantially stable chemically and polymorphically	better solubility profile	250 (≈ 824 mM)	24 (≈ 79.1 mM)	700 (≈ 2310 mM)	70 (≈ 231 mM)	<0.1	10 (≈ 33 mM)	<0.1	<0.1								
CCOC(=O)Nc1ccc(NCc2ccc(F)cc2)cc1N [Modification-A, N-[2-amino-4-(4-fluorobenzylamino)-phenyl]carbamic acid ethyl ester]				280 (≈ 923 mM)	23 (≈ 75.8 mM)	800 (≈ 2640 mM)	50 (≈ 165 mM)	<0.1	13 (≈ 42.9 mM)	<0.1	<0.1								
CCOC(=O)Nc1ccc(NCc2ccc(F)cc2)cc1N [Modification-B, N-[2-amino-4-(4-fluorobenzylamino)-phenyl]carbamic acid ethyl ester]				280 (≈ 923 mM)	22 (≈ 72.5 mM)	700 (≈ 2310 mM)	80 (≈ 264 mM)	<0.1	10 (≈ 33 mM)	<0.1	<0.1								
CCOC(=O)Nc1ccc(NCc2ccc(F)cc2)cc1N [Modification-C, N-[2-amino-4-(4-fluorobenzylamino)-phenyl]carbamic acid ethyl ester]												700 (≈ 2310 mM)	310 (≈ 1020 mM)	16 (≈ 52.7 mM)	50 (≈ 165 mM)	11 (≈ 36.3 mM)	< 0.1	< 0.1	< 0.1
